From patent publication US11020395B2, “Cycloalkyl substituted triazole compounds as agonists of the APJ receptor” (AMGEN INC., priority 2016, dated 2021)

Target: human APJ receptor (Homo sapiens (Human), UniProt P35414)
Assay: [35S]GTPγS binding assay on membranes from CHO cells stably expressing human APJ receptor
Type: biochemical
Conditions: [35S]GTPγS SPA, read-out: Activity hAPJ SPA EC50 IP
Outline: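 Membranes from CHO cells stably expressing FLAG-tagged human APJ were incubated with [35S]GTPγS in buffer with optimized GDP, MgCl2 and NaCl, 90 min at RT. EC50 values derived by non-linear regression, averaged over several independent experiments.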

human APJ receptor, sequence (P35414 whole entry): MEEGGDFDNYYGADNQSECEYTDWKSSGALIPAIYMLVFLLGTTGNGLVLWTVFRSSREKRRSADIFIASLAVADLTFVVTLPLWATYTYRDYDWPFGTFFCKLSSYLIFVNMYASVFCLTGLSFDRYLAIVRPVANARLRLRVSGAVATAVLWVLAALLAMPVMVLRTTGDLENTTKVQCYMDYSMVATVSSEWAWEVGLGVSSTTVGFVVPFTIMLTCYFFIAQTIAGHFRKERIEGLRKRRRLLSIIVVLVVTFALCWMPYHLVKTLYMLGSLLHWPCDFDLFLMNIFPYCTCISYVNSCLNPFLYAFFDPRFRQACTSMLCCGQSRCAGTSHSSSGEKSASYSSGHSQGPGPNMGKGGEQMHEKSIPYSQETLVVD

Row | Compound | EC50 [nM]
1 | COc1cccc(OC)c1-n1c(NS(=O)(=O)[C@@H](C)[C@H](OC)c2ncc(Cl)cn2)nnc1[C@H]1C[C@H](F)C1 (single isomer, unassigned) [Example 151.0, (1R,2S)-1-(5-chloropyrimidin-2-yl)-N-(4-(2,6-dimethoxyphenyl)-5-((1r,3S)-3-fluorocyclobutyl)-4H-1,2,4-triazol-3-yl)-1-methoxypropane-2-sulfonamide or (1R,2S)-1-(5-chloropyrimidin-2-yl)-N-(4-(2,6-dimethoxyphenyl)-5-((1r,3R)-3-fluorocyclobutyl)-4H-1,2,4-triazol-3-yl)-1-methoxypropane-2-sulfonamide] | 5.4
2 | COc1ncnc(OC)c1-n1c(NS(=O)(=O)[C@@H](C)[C@H](C)c2ncc(C)cn2)nnc1C1CCC1 [Example 4.0, (2S,3R)-N-(5-cyclobutyl-4-(4,6-dimethoxy-5-pyrimidinyl)-4H-1,2,4-triazol-3-yl)-3-(5-methyl-2-pyrimidinyl)-2-butanesulfonamide] | 21
3 | COc1cccc(OC)c1-n1c(NS(=O)(=O)[C@@H](C)[C@H](OC)c2ncc(Cl)cn2)nnc1[C@H]1C[C@H](F)C1 (single isomer, unassigned) [Example 152.0, (1R,2S)-1-(5-chloropyrimidin-2-yl)-N-(4-(2,6-dimethoxyphenyl)-5-((1r,3S)-3-fluorocyclobutyl)-4H-1,2,4-triazol-3-yl)-1-methoxypropane-2-sulfonamide or (1R,2S)-1-(5-chloropyrimidin-2-yl)-N-(4-(2,6-dimethoxyphenyl)-5-((1s,3R)-3-fluorocyclobutyl)-4H-1,2,4-triazol-3-yl)-1-methoxypropane-2-sulfonamide] | 4.2
4 | COc1ncnc(OC)c1-n1c(NS(=O)(=O)[C@@H](C)[C@H](OC)c2ncc(Cl)cn2)nnc1[C@H]1CC1(F)F (single isomer, unassigned) [Example 100.0, (1R,2S)-1-(5-chloropyrimidin-2-yl)-N-(5-((R)-2,2-difluorocyclopropyl)-4-(4,6-dimethoxypyrimidin-5-yl)-4H-1,2,4-triazol-3-yl)-1-methoxypropane-2-sulfonamide or (1R,2S)-1-(5-chloropyrimidin-2-yl)-N-(5-((S)-2,2-difluorocyclopropyl)-4-(4,6-dimethoxypyrimidin-5-yl)-4H-1,2,4-triazol-3-yl)-1-methoxypropane-2-sulfonamide] | 140
5 | COc1ncnc(OC)c1-n1c(NS(=O)(=O)[C@@H](C)[C@H](OC)c2ncc(Cl)cn2)nnc1[C@H]1CC[C@@H]1F (single isomer, unassigned) [Example 182.0, (1R,2S)-1-(5-chloropyrimidin-2-yl)-N-(4-(4,6-dimethoxypyrimidin-5-yl)-5-((1R,2S)-2-fluorocyclobutyl)-4H-1,2,4-triazol-3-yl)-1-methoxypropane-2-sulfonamide or (1R,2S)-1-(5-chloropyrimidin-2-yl)-N-(4-(4,6-dimethoxypyrimidin-5-yl)-5-((1S,2R)-2-fluorocyclobutyl)-4H-1,2,4-triazol-3-yl)-1-methoxypropane-2-sulfonamide] | 10
6 | COc1ncnc(OC)c1-n1c(NS(=O)(=O)[C@@H](C)[C@H](OC)c2ncc(Cl)cn2)nnc1[C@H]1C[C@]2(CC2(F)F)C1 (single isomer, unassigned) [Example 204.0, (1R,2S)-1-(5-chloropyrimidin-2-yl)-N-(5-((3R,5s)-1,1-difluorospiro[2.3]hexan-5-yl)-4-(4,6-dimethoxypyrimidin-5-yl)-4H-1,2,4-triazol-3-yl)-1-methoxypropane-2-sulfonamide or (1R,2S)-1-(5-chloropyrimidin-2-yl)-N-(5-((3S,5r)-1,1-difluorospiro[2.3]hexan-5-yl)-4-(4,6-dimethoxypyrimidin-5-yl)-4H-1,2,4-triazol-3-yl)-1-methoxypropane-2-sulfonamide] | 34
7 | CO[C@H](c1ncc(Cl)cn1)[C@H](C)S(=O)(=O)Nc1nnc([C@H]2C[C@H](CO)C2)n1C1CC1 (single isomer, unassigned) [Example 135.0, (1R,2S)-1-(5-chloro-2-pyrimidinyl)-N-(4-cyclopropyl-5-(trans-3-(hydroxymethyl)cyclobutyl)-4H-1,2,4-triazol-3-yl)-1-methoxy-2-propanesulfonamide or (1R,2S)-1-(5-chloro-2-pyrimidinyl)-N-(4-cyclopropyl-5-(cis-3-(hydroxymethyl)cyclobutyl)-4H-1,2,4-triazol-3-yl)-1-methoxy-2-propanesulfonamide] | 1810
8 | COc1cccc(OC)c1-n1c(NS(=O)(=O)[C@@H](C)[C@H](OC)c2ncc(Cl)cn2)nnc1[C@H]1C[C@@](C)(F)C1 (single isomer, unassigned) [Example 195.0, (1R,2S)-1-(5-chloropyrimidin-2-yl)-N-(4-(2,6-dimethoxyphenyl)-5-((1s,3R)-3-fluoro-3-methylcyclobutyl)-4H-1,2,4-triazol-3-yl)-1-methoxypropane-2-sulfonamide or (1R,2S)-1-(5-chloropyrimidin-2-yl)-N-(4-(2,6-dimethoxyphenyl)-5-((1r,3S)-3-fluoro-3-methylcyclobutyl)-4H-1,2,4-triazol-3-yl)-1-methoxypropane-2-sulfonamide] | 2.6
9 | (1R,2S)-1-(5-chloropyrimidin-2-yl)-N-(5-((R)-2,2-dimethylcyclopropyl)-4-(tetrahydro-2H-pyran-4-yl)-4H-1,2,4-triazol-3-yl)-1-methoxypropane-2-sulfonamide or (1R,2S)-1-(5-chloropyrimidin-2-yl)-N-(5-((S)-2,2-dimethylcyclopropyl)-4-(tetrahydro-2H-pyran-4-yl)-4H-1,2,4-triazol-3-yl)-1-methoxypropane-2-sulfonamide [Example 21.0] | 480
10 | COc1ncnc(OC)c1-n1c(NS(=O)(=O)[C@@H](C)[C@H](OC)c2cnc(C)cn2)nnc1C1CCC1 [Example 82.0, (1R,2S)-N-(5-cyclobutyl-4-(4,6-dimethoxy-5-pyrimidinyl)-4H-1,2,4-triazol-3-yl)-1-methoxy-1-(5-methyl-2-pyrazinyl)-2-propanesulfonamide] | 50
11 | COc1ncnc(OC)c1-n1c(NS(=O)(=O)[C@@H](C)[C@H](OC)c2ncc(Cl)cn2)nnc1[C@H]1CC[C@@H](F)CC1 (single isomer, unassigned) [Example 176.0, (1R,2S)-1-(5-chloropyrimidin-2-yl)-N-(4-(4,6-dimethoxypyrimidin-5-yl)-5-((1s,4R)-4-fluorocyclohexyl)-4H-1,2,4-triazol-3-yl)-1-methoxypropane-2-sulfonamide or (1R,2S)-1-(5-chloropyrimidin-2-yl)-N-(4-(4,6-dimethoxypyrimidin-5-yl)-5-((1r,4S)-4-fluorocyclohexyl)-4H-1,2,4-triazol-3-yl)-1-methoxypropane-2-sulfonamide] | 17
12 | COc1cccc(OC)c1-n1c(NS(=O)(=O)[C@@H](C)[C@H](OC)c2ncc(Cl)cn2)nnc1C1CCCC1 [Example 241.0, (1R,25)-1-(5-chloro-2-pyrimidinyl)-N-(5-cyclopentyl-4-(2,6-dimethoxyphenyl)-4H-1,2,4-triazol-3-yl)-1-methoxy-2-propanesulfonamide] | 1.2
13 | COc1cccc(OC)c1-n1c(NS(=O)(=O)[C@@H](C)[C@H](OC)c2ncc(Cl)cn2)nnc1C1CC(F)(F)C1 [Example 147.0] | 6.4
14 | COc1cccc(OC)c1-n1c(NS(=O)(=O)[C@@H](C)[C@H](OC)c2ncc(Cl)cn2)nnc1C12CC(C1)C2 [Example 217.0] | 7.4
15 | COc1cccc(OC)c1-n1c(NS(=O)(=O)[C@@H](C)[C@H](OC)c2ncc(Cl)cn2)nnc1[C@H]1CCC1(F)F (single isomer, unassigned) [Example 159.0, (1R,2S)-1-(5-chloropyrimidin-2-yl)-N-(5-((R)-2,2-difluorocyclobutyl)-4-(2,6-dimethoxyphenyl)-4H-1,2,4-triazol-3-yl)-1-methoxypropane-2-sulfonamide or (1R,2S)-1-(5-chloropyrimidin-2-yl)-N-(5-((S)-2,2-difluorocyclobutyl)-4-(2,6-dimethoxyphenyl)-4H-1,2,4-triazol-3-yl)-1-methoxypropane-2-sulfonamide] | 8
16 | COc1ncnc(OC)c1-n1c(NS(=O)(=O)[C@@H](C)[C@H](OC)c2ncc(Cl)cn2)nnc1[C@H]1CC[C@@H](C(F)F)CC1 (single isomer, unassigned) [Example 145.0, (1R,2S)-1-(5-chloro-2-pyrimidinyl)-N-(5-(cis-4-(difluoromethyl)cyclohexyl)-4-(4,6-dimethoxy-5-pyrimidinyl)-4H-1,2,4-triazol-3-yl)-1-methoxy-2-propanesulfonamide or (1R,2S)-1-(5-chloro-2-pyrimidinyl)-N-(5-(trans-4-(difluoromethyl)cyclohexyl)-4-(4,6-dimethoxy-5-pyrimidinyl)-4H-1,2,4-triazol-3-yl)-1-methoxy-2-propanesulfonamide] | 4.8
17 | COc1cccc(OC)c1-n1c(NS(=O)(=O)[C@@H](C)[C@@H](OC(C)C)c2cnc(C)cn2)nnc1C1CCC1 [Example 140.0] | 31
18 | COc1cccc(OC)c1-n1c(NS(=O)(=O)[C@@H](C)[C@H](OC)c2ncc(Cl)cn2)nnc1[C@H]1CC(=O)C1(C)C (single isomer, unassigned) [Example 196.0, (1R,2S)-1-(5-chloropyrimidin-2-yl)-N-(4-(2,6-dimethoxyphenyl)-5-((R)-2,2-dimethyl-3-oxocyclobutyl)-4H-1,2,4-triazol-3-yl)-1-methoxypropane-2-sulfonamide or (1R,2S)-1-(5-chloropyrimidin-2-yl)-N-(4-(2,6-dimethoxyphenyl)-5-((S)-2,2-dimethyl-3-oxocyclobutyl)-4H-1,2,4-triazol-3-yl)-1-methoxypropane-2-sulfonamide] | 330
19 | C=C1CC(c2nnc(NS(=O)(=O)[C@@H](C)[C@H](OC)c3ncc(Cl)cn3)n2-c2c(OC)ncnc2OC)C1 [Example 118.0] | 1
20 | COc1ncnc(OC)c1-n1c(NS(=O)(=O)[C@@H](C)[C@H](OC)c2ncc(Cl)cn2)nnc1C1CC2(CCC2)C1 [Example 184.0, (1R,2S)-1-(5-chloro-2-pyrimidinyl)-N-(4-(4,6-dimethoxy-5-pyrimidinyl)-5-(spiro[3.3]heptan-2-yl)-4H-1,2,4-triazol-3-yl)-1-methoxy-2-propanesulfonamide] | 1.1
